Data as given in patent US20250319052A1, “TREATMENT WITH HIGHLY PURIFIED EICOSAPENT AENOIC ACID AS FREE FATTY ACID IMPROVES INFLAMMATION, AFFECTS COLONIC DIFFERENTIATION MARKERS AND MICROBIOTA IN PATIENTS WITH ULCERATIVE COLITIS” (KD SWISS GMBH, priority 2019, published 2025).

Experiment: Membrane fatty acid analysis in red blood cells (GC-MS) of UC patients given EPA-FFA
Assay type: in vivo, human
Procedure: A study will be conducted with patients having long-standing UC. Specifically, about 20 long-standing UC patients in stable clinical remission (SCCAI=0) and with fecal calprotectin (FC)>150 μg/g measured in stools are recruited and treated with 2 g/day of EPA-FFA for 90 days. Biopsies and biological samples are collected at the entry (TO) and at the end of the study (T3). Compliance is evaluated by EPA incorporation into red blood cell membranes. Protein levels of Jagged1, Hes1, STAT3, phospho-STAT3 and KLF-4 are determined by western blotting. IL-22, IL-10 and SOCS3 mRNA levels are analyzed by qRT-PCR. Goblet cells are stained by Alcian blue. Microbiota analyses are performed on fecal and biopsies DNA samples sequencing the V3-V4 region of the bacterial 16S rRNA gene. As a reference, a healthy adult population is used. Endoscopic and histologic disease activities are measured by Mayo and Geboes scores respectively.
Since EPA can be converted into the m-3 PUFA docosahexaenoic acid (DHA) in vivo through docosapentaenoic acid (DPA) (19), the overall ω-3 PUFAs content is also measured including EPA, DPA and DHA, in the patients.
Eligible patients are asymptomatic subjects aged 18-70 years with long-standing (≥8 years) UC, in stable clinical remission (simple clinical colitis activity index; SCCAI=0), and FC levels higher than 150 μg/g (53). Exclusion criteria are (1) recent use of steroids (<2 months) or other experimental drugs (<3 months); (2) concomitant use of anticoagulants; (3) probiotic use; (4) pregnancy or breast-feeding; (5) known or suspected hypersensitivity to eicosapentaenoic acid or ω-3 PUF As; and (6) severe co-morbidities. […] Adherence to EPA-FFA supplementation is evaluated both by capsule counting and assessing EPA incorporation into red blood cell (RBC) membranes. […]
Membrane fatty acids content is measured in RBCs. […] Extracted fatty acid methyl-esters are then analyzed by gas-chromatography mass-spectrometry (GC-MS). Fatty acid levels are expressed as relative percentages of total fatty acids.

[1] = short-term EPA-FFA supplementation, long-standing UC patients

CC/C=C\C/C=C\C/C=C\C/C=C\C/C=C\CCCC(=O)O [EPA-FFA, eicosapentaenoic acid]
EPA in RBC-purified membranes (UC patients, 2 g/day EPA-FFA for 90 days): significant increase | EPA and overall ω-3 PUFAs content (EPA, DPA and DHA) into RBCs [1]: increase | patients who incorporated EPA into RBCs [1]: 17/19
